Measurements reported in patent US20250352520A1, “USE OF DEXPRAMIPEXOLE FOR THE TREATMENT OF EOSINOPHILIC COPD” (Areteia Therapeutics, Inc., priority 2024, published 2025).

Conditions: Week 8; >=50% AEC reduction at Week 16

Q: For `CCCN[C@@H]1CCc2nc(N)sc2C1` [Dexpramipexole, (6R)-2-amino-4,5,6,7-tetrahydro-6-(propylamino)benzothiazole], which “Pre-BD FEF25-75 % change from baseline, Max” value is on record?
A: 38%

Q: And the “Pre-BD FEF25-75 % change from baseline, Mean ± SD” value?
A: 10.2 ± 27.88%

Q: What about the “Pre-BD FEF25-75 % change from baseline, Median” value of the same molecule?
A: 9.5%

Q: And the “Pre-BD FEF25-75 % change from baseline, Min” value?
A: −17%

Q: And the “Pre-BD FEF25-75 % change from baseline, Q1” value?
A: −17%

Q: What about the “Pre-BD FEF25-75 % change from baseline, Q3” value of the same molecule?
A: 38%

Q: What about the “Pre-BD FEF25-75 Observed, Max” value of the same molecule?
A: 1010 mL/s

Q: And the “Pre-BD FEF25-75 Observed, Mean ± SD” value?
A: 666.7 ± 398.29 mL/s

Q: What about the “Pre-BD FEF25-75 Observed, Median” value of the same molecule?
A: 760.0 mL/s

Q: And the “Pre-BD FEF25-75 Observed, Min” value?
A: 230 mL/s

Q: What about the “Pre-BD FEF25-75 Observed, Q1” value of the same molecule?
A: 230 mL/s

Q: What about the “Pre-BD FEF25-75 Observed, Q3” value of the same molecule?
A: 1010 mL/s

Q: And the “Pre-BD FEF25-75 change from baseline, Max” value?
A: 280 mL/s

Q: What about the “Pre-BD FEF25-75 change from baseline, Mean ± SD” value of the same molecule?
A: 46.7 ± 221.21 mL/s

Q: What about the “Pre-BD FEF25-75 change from baseline, Median” value of the same molecule?
A: 20.0 mL/s

Q: What about the “Pre-BD FEF25-75 change from baseline, Min” value of the same molecule?
A: -160 mL/s

Q: And the “Pre-BD FEF25-75 change from baseline, Q1” value?
A: -160 mL/s

Q: And the “Pre-BD FEF25-75 change from baseline, Q3” value?
A: 280 mL/s

Q: What about the “Pre-BD FEV1 % change from baseline, Max” value of the same molecule?
A: 53%

Q: And the “Pre-BD FEV1 % change from baseline, Mean ± SD” value?
A: 18.7 ± 30.56%

Q: And the “Pre-BD FEV1 % change from baseline, Median” value?
A: 8.3%

Q: And the “Pre-BD FEV1 % change from baseline, Min” value?
A: −5%

Q: And the “Pre-BD FEV1 % change from baseline, Q1” value?
A: −5%

Q: And the “Pre-BD FEV1 % change from baseline, Q3” value?
A: 53%

Q: And the “Pre-BD FEV1 Observed, Max” value?
A: 1990 mL

Q: What about the “Pre-BD FEV1 Observed, Mean ± SD” value of the same molecule?
A: 1453.3 ± 616.47 mL

Q: And the “Pre-BD FEV1 Observed, Median” value?
A: 1590.0 mL

Q: And the “Pre-BD FEV1 Observed, Min” value?
A: 780 mL

Q: And the “Pre-BD FEV1 Observed, Q1” value?
A: 780 mL

Q: What about the “Pre-BD FEV1 Observed, Q3” value of the same molecule?
A: 1990 mL

Q: And the “Pre-BD FEV1 change from baseline, Max” value?
A: 690 mL

Q: What about the “Pre-BD FEV1 change from baseline, Mean ± SD” value of the same molecule?
A: 220.0 ± 413.88 mL

Q: And the “Pre-BD FEV1 change from baseline, Median” value?
A: 60.0 mL

Q: And the “Pre-BD FEV1 change from baseline, Min” value?
A: -90 mL

Q: And the “Pre-BD FEV1 change from baseline, Q1” value?
A: -90 mL

Q: And the “Pre-BD FEV1 change from baseline, Q3” value?
A: 690 mL

Q: What about the “Pre-BD FVC % change from baseline, Max” value of the same molecule?
A: 24%

Q: What about the “Pre-BD FVC % change from baseline, Mean ± SD” value of the same molecule?
A: 8.8 ± 13.54%

Q: And the “Pre-BD FVC % change from baseline, Median” value?
A: 3.3%

Q: What about the “Pre-BD FVC % change from baseline, Min” value of the same molecule?
A: −1%

Q: And the “Pre-BD FVC % change from baseline, Q1” value?
A: −1%

Q: What about the “Pre-BD FVC % change from baseline, Q3” value of the same molecule?
A: 24%

Q: And the “Pre-BD FVC Observed, Max” value?
A: 3130 mL

Q: What about the “Pre-BD FVC Observed, Mean ± SD” value of the same molecule?
A: 2626.7 ± 477.53 mL

Q: And the “Pre-BD FVC Observed, Median” value?
A: 2570.0 mL

Q: What about the “Pre-BD FVC Observed, Min” value of the same molecule?
A: 2180 mL

Q: What about the “Pre-BD FVC Observed, Q1” value of the same molecule?
A: 2180 mL

Q: And the “Pre-BD FVC Observed, Q3” value?
A: 3130 mL

Q: And the “Pre-BD FVC change from baseline, Max” value?
A: 610 mL

Q: What about the “Pre-BD FVC change from baseline, Mean ± SD” value of the same molecule?
A: 216.7 ± 344.29 mL

Q: What about the “Pre-BD FVC change from baseline, Median” value of the same molecule?
A: 70.0 mL

Q: What about the “Pre-BD FVC change from baseline, Min” value of the same molecule?
A: -30 mL

Q: What about the “Pre-BD FVC change from baseline, Q1” value of the same molecule?
A: -30 mL

Q: What about the “Pre-BD FVC change from baseline, Q3” value of the same molecule?
A: 610 mL

Q: And the “Pre-BD Peak Flow % change from baseline, Max” value?
A: 90%

Q: And the “Pre-BD Peak Flow % change from baseline, Mean ± SD” value?
A: 25.2 ± 58.36%

Q: What about the “Pre-BD Peak Flow % change from baseline, Median” value of the same molecule?
A: 9.6%

Q: And the “Pre-BD Peak Flow % change from baseline, Min” value?
A: −24%

Q: What about the “Pre-BD Peak Flow % change from baseline, Q1” value of the same molecule?
A: −24%

Q: What about the “Pre-BD Peak Flow % change from baseline, Q3” value of the same molecule?
A: 90%

Q: And the “Pre-BD Peak Flow Observed, Max” value?
A: 298 L/min

Q: And the “Pre-BD Peak Flow Observed, Mean ± SD” value?
A: 197.7 ± 87.79 L/min

Q: And the “Pre-BD Peak Flow Observed, Median” value?
A: 160.0 L/min

Q: What about the “Pre-BD Peak Flow Observed, Min” value of the same molecule?
A: 135 L/min

Q: And the “Pre-BD Peak Flow Observed, Q1” value?
A: 135 L/min

Q: And the “Pre-BD Peak Flow Observed, Q3” value?
A: 298 L/min

Q: What about the “Pre-BD Peak Flow change from baseline, Max” value of the same molecule?
A: 141 L/min

Q: And the “Pre-BD Peak Flow change from baseline, Mean ± SD” value?
A: 37.7 ± 93.77 L/min

Q: And the “Pre-BD Peak Flow change from baseline, Median” value?
A: 14.0 L/min

Q: And the “Pre-BD Peak Flow change from baseline, Min” value?
A: -42 L/min

Q: What about the “Pre-BD Peak Flow change from baseline, Q1” value of the same molecule?
A: -42 L/min

Q: And the “Pre-BD Peak Flow change from baseline, Q3” value?
A: 141 L/min
